Test results from patent US20250263415A1, “TERTIARY AMIDE DERIVATIVES SUBSTITUTED WITH 4-MEMBERED RING STRUCTURE” (Sumitomo Pharma Co., Ltd., priority 2024, published 2025).
Converted amounts (≈) assume the structure as drawn. Read-outs that look alike come from different tables or passages of the source. Each block holds one compound with its values, some of them ahead of it.

Tests used:
G-401 xenograft = assay: Drug efficacy evaluation by intravenous administration using G-401 xenograft mice model; type: in vivo; conditions: G-401 xenograft model
Method: G-401 cells (ATCC) were intradermally transplanted into 4-7-week-old BALB/cAnNCrj-nu/nu mice (CAnN.Cg-Foxnl/CrlCrlj, Jackson Laboratory Japan) at 5×10^5 cells/mouse. After confirming the engraftment of G-401 cells 10-40 days after transplantation, the test compound suspended in a solvent such as 10 mmol/L glycine buffer solution (pH 2.0) was administered via the tail vein at least once a week at a dose of 0.015-20 mg/kg. The tumor volume was measured over time from the start of administration, and the effect of tumor volume reduction by administration of the test compound was evaluated. The tumor volume can be calculated from the following equation using the minor axis and major axis of the tumor measured with an electronic caliper (Mitutoyo).
A control administration group administered with only a solvent such as 10 mmol/L glycine buffer solution (pH 2.0) and a test compound administration group were compared, and the antitumor effect was evaluated by calculating T/C from the following equation.

hDAT = hDAT (Homo sapiens (Human), UniProt Q01959); assay: Dopamine receptor inhibitory activity evaluation (binding assay, CHO-S/hDAT membranes); conditions: for Inhibitory effect on dopamine receptors (in words): off-target
Chain of hDAT (Q01959 whole entry): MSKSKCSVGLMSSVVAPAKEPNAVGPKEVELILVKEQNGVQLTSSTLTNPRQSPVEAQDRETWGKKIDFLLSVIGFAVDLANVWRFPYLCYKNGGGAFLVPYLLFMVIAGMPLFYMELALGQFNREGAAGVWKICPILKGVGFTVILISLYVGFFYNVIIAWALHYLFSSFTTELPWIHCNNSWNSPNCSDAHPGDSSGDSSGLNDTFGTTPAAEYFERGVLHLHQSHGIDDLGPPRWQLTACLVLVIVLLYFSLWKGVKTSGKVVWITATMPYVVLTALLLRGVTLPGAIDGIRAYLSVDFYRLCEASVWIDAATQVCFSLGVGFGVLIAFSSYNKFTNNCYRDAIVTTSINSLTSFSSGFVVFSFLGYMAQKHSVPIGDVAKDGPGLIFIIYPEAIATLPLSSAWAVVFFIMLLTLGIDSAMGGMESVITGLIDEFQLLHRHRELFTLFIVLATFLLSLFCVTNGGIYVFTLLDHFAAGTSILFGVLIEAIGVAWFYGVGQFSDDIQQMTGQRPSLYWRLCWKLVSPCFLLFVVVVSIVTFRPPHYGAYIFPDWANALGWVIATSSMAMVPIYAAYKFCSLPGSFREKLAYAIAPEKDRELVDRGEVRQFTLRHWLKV
Method: The binding evaluation assay was outsourced to Eurofins. Specifically, CHO—S/hDAT cells were homogenized in an incubation buffer consisting of 50 mmol/L Tris-HCl, pH 7.4, 100 mmol/L NaCl, 1 μmol/L Leupeptin, and 10 μmol/L PMSF. The membrane pellet obtained by centrifugation was resuspended in the incubation buffer to prepare a membrane preparation. The test compound (1-10 μmol/L DMSO solution), the membrane preparation, and 0.15 nmol/L […] were mixed and incubated at 4° C. for 180 minutes. The cell membrane-[^125I]RTI-55 complex was bound to a GF/B filter mat by vacuum filtration and washed with 50 mmol/L Tris-HCl, pH 7.4. The effect on the receptor was assessed by measuring radioactivity using a scintillation counter.

Solubility test = type: physicochemical; conditions: for solubility: aqueous buffer, thermodynamic from solid
Method: The solubility was measured for Examples 7, 10, 20, 23, 24, and 30 to 34, Comparative Example 1, and Comparative Example 2. The test compound was added to 10 mmol/L glycine buffer (pH 2.0) and 10 mmol/L citrate buffer (pH 3.0), and the mixture was stored in a thermostatic chamber at 5° C. After standing overnight, the mixture was filtered through a membrane filter, and the concentration of the filtrate was measured by HPLC.
The HPLC measurement conditions are as follows.
HPLC conditions • Column: Acquity UPLC BEH C18, 1.7 μm, 50×2.1 mm • Column temperature: 40° C. • Mobile phase: A: 0.1% trifluoroacetic acid-containing water • B: acetonitrile • A/B (min): 95/5 (0)→0/100 (3.5)→0/100 (4)→95/5 (4.01)→95/5 (5) • Flow rate: 0.8 mL/min • Detection: UV visible detector, measurement wavelength 254 nm • Injection volume: 5 μL or • Column: Acquity UPLC BEH C18, 1.7 μm, 50×2.1 mm • Column temperature: 40° C. • Mobile phase: A: 0.1% trifluoroacetic acid-containing water • B: acetonitrile • A/B (min): • 80/20 (0)→40/60 (3.0)→0/100 (3.5)→0/100 (4)→80/20 (4.01)→80/20 (5) • Flow rate: 0.8 mL/min • Detection: UV visible detector, measurement wavelength 254 nm • Injection volume: 2 μL or • Column: Acquity UPLC BEH C18, 1.7 μm, 50×2.1 mm • Column temperature: 40° C. • Mobile phase: A: 0.1% trifluoroacetic acid-containing water • B: acetonitrile • A/B (min): • 80/20 (0)→40/60 (3.0)→0/100 (3.5)→0/100 (4)→100/0 (4.01)→100/0 (5) • Flow rate: 0.8 mL/min • Detection: UV visible detector, measurement wavelength 254 nm • Injection volume: 3 μL

hSERT = hSERT (Homo sapiens (Human), UniProt P31645); assay: Serotonin receptor inhibitory activity evaluation (binding assay, HEK293/hSERT membranes); conditions: for Inhibitory effect on serotonin receptors (in words): off-target
Chain of hSERT (P31645 whole entry): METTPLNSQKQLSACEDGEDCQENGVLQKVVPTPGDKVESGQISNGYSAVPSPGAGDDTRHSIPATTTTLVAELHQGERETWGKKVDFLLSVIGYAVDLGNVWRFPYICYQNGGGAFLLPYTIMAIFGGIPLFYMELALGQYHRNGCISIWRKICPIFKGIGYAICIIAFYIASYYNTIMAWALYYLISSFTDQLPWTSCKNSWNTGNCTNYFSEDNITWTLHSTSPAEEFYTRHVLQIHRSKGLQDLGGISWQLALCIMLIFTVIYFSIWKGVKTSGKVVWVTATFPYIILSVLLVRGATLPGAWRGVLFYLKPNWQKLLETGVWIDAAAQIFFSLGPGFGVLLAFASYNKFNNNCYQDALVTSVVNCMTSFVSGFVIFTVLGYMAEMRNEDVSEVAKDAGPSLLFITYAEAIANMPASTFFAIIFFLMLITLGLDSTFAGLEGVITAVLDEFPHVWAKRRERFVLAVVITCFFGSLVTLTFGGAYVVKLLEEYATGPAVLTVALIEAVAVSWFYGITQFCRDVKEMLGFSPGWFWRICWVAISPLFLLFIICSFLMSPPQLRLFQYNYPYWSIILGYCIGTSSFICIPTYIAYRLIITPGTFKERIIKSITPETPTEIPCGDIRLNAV
Method: The binding evaluation assay was outsourced to Eurofins. Specifically, HEK293/hSERT cells were homogenized in a buffer consisting of 100 mmol/L NaCl, 1 μmol/L Leupeptin, 10 μmol/L PMSF, and 50 mmol/L Tris-HCl (pH7.4). The membrane pellet obtained by centrifugation was resuspended in an incubation buffer consisting of 50 mmol/L Tris-HCl (pH 7.4), 120 mmol/L NaCl, and 5 mmol/L KCl to prepare a membrane preparation. The test compound (1-10 μmol/L DMSO solution), the membrane preparation, and 0.4 nmol/L [^3H]Paroxetin were mixed and incubated at 25° C. for 60 minutes. The cell membrane-[^3H]Paroxetin complex was bound to a GF/B filter mat by vacuum filtration and washed with 50 mmol/L Tris-HCl (pH 7.4). The effect on the receptor was assessed by measuring radioactivity using a scintillation counter.

recombinant p300 = recombinant p300 (Homo sapiens (Human), UniProt Q09472); assay: HAT activity inhibition experiment (SensoLyte HAT(p300) Assay Kit); type: biochemical; conditions: recombinant p300, acetyl CoA, histone H3 peptide
Chain of recombinant p300 (Q09472 whole entry): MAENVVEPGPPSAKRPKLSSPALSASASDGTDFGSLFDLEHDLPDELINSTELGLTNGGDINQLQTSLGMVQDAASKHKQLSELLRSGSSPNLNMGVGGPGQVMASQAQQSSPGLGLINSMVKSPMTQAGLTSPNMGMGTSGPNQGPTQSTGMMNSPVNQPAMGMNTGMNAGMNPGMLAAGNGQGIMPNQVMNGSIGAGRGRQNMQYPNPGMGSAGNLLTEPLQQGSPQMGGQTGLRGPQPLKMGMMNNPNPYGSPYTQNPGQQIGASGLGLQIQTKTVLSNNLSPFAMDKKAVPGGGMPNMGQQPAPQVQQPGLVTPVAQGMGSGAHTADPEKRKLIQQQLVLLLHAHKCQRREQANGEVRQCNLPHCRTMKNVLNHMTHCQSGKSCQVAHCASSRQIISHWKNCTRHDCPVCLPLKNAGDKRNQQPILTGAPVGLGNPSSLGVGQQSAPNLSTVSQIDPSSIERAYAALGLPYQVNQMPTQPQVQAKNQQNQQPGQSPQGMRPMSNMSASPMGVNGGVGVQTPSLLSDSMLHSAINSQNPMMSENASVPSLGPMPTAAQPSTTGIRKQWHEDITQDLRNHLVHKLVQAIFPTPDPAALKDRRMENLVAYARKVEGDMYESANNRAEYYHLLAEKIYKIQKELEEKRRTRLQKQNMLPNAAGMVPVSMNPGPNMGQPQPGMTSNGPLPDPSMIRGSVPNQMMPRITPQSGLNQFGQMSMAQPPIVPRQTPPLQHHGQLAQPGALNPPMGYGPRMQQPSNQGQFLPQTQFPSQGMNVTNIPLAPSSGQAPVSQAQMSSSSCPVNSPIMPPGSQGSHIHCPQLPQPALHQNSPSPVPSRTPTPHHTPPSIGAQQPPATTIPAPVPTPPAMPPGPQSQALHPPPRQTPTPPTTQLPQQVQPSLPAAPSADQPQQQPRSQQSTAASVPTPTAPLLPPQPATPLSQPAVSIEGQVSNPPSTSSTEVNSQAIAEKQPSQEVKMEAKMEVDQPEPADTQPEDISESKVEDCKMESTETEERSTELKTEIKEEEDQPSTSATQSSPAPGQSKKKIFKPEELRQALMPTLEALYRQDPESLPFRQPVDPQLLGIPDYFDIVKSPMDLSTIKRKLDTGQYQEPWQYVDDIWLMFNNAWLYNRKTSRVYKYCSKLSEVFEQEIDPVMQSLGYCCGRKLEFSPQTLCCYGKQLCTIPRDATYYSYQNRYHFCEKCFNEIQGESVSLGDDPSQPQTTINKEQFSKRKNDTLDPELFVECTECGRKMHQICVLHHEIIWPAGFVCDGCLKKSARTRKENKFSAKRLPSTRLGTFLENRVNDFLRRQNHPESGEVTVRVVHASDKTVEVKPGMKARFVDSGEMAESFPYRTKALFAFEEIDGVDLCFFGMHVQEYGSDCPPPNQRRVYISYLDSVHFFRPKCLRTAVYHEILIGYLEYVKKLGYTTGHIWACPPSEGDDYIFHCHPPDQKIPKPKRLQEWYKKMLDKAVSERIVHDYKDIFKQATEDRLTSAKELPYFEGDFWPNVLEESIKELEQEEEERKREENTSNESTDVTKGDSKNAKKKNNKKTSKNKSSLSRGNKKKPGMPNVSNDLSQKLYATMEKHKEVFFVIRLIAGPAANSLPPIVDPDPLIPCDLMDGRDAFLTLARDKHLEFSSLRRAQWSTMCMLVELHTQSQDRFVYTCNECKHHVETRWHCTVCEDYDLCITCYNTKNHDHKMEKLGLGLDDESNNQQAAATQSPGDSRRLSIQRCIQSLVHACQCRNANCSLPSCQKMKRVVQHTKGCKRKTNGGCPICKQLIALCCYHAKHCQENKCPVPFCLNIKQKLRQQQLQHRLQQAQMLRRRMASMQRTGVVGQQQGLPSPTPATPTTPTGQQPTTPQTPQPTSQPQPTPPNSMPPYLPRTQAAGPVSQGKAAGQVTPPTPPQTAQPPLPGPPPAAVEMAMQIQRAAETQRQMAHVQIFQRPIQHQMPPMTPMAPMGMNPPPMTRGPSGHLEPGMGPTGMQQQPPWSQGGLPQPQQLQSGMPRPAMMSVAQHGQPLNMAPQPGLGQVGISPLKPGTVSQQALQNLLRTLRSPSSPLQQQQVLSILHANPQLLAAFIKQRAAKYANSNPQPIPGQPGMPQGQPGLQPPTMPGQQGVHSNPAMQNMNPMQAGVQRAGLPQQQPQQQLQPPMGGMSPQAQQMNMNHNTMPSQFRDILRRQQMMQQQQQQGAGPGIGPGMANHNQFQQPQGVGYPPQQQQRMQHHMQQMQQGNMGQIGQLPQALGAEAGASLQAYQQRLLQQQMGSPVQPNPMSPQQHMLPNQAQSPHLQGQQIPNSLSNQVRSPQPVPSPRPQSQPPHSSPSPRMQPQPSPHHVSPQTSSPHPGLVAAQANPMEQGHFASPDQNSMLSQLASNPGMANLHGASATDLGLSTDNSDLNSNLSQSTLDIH
Method: The HAT activity inhibitory ability of HAT inhibitors was evaluated using SensoLyte HAT(p300) Assay Kit (ANASPEC, AS-72172). Specifically, 7.5 μL of the compound of Examples […] diluted with assay buffer was added to 7.5 μL of recombinant p300 solution diluted 10 times with assay buffer, and the mixture was incubated at room temperature for 10 minutes. 7.5 μL of acetyl CoA solution diluted 10 times with assay buffer and 15 μL of histone H3 peptide diluted 10 times with assay buffer were added thereto, and the mixture was incubated at 37° C. for 30 minutes. 37.5 μL of Stop Solution was added to stop the reaction. 75 μL of p300 Developer solution diluted 50 times with assay buffer was added, and the mixture was incubated at room temperature for 30 minutes under light-shielded conditions. The fluorescence at 513 nm when irradiated with 389 nm excitation light was measured using a multiplate reader.

[1] = Pharmacokinetic study in mice; type: in vivo; conditions: for BA: oral 10 mg/kg vs intravenous 1 mg/kg
Method: The test compound was administered to 7-week-old female BALE/c (BALB/cAnN CrlCrlj) mice intravenously (dosage: 1 mg/kg) in a 50% PEG solution (0.01 mol/L HCl) or orally (dosage: 10 mg/kg) in a 0.5% methylcellulose aqueous solution, and blood was collected at the following times: • Intravenous administration: 5 min, 15 min, 30 min, 1 hr, 2 hr, 4 hr, 6 hr, and 24 hr after administration • Oral administration: 15 min, 30 min, 1 hr, 2 hr, 4 hr, 6 hr, and 24 hr after administration
The collected blood was centrifuged at 3000 rpm×10 min using a refrigerated centrifuge set at 4° C., and the obtained plasma was measured by LC-MS. A calibration curve was prepared from the value (peak ratio) obtained by dividing the peak area of the test substance by the peak area of the internal standard substance in MS and the concentration of the plasma calibration curve sample. The concentration in the sample was calculated from the peak ratio and the calibration curve of each sample.

G-401 cells = assay: Cell proliferation inhibition experiment using G-401 cells; type: cell-based
Method: G-401 cells (derived from malignant rhabdoid tumor) were obtained from the American Type Culture Collection (ATCC). G-401 cells were cultured in McCoy's 5A medium containing 10% fetal bovine serum and 1% penicillin/streptomycin under conditions of 37° C. and 5% CO2.
500 cells per well were seeded in a 384-well plate. One day after seeding, Examples 1 to 35 were added so that the final concentration of DMSO was 0.1%, and the cells were cultured for 3 days. After the culture was completed, the cell viability was measured using CellTiter-Glo Luminescent Cell Viability Assay (Promega, G7570).

Structure (SMILES): CNC(=O)Cn1cc(-c2ccc3c(c2)[C@H](F)C[C@]32NC(=O)N(CC(=O)N(Cc3ccc(F)cc3)[C@@H](C)C(F)(F)F)C2=O)cn1 [Comparative Example 1, reference compound]
Antitumor effect, intravenous administration (in words) (G-401 xenograft): no antitumor effect

Structure (SMILES): CNC(=O)Nc1ccc2c(c1)CC[C@@]21OC(=O)N(CC(=O)N2[C@@H](C)CC[C@H]2c2cc(F)c(F)c(F)c2)C1=O [Comparative Example 2, reference compound]
inhibition at 10 µM (hDAT; 10 μM, CHO-S/hDAT membrane preparation): 88%
Inhibitory effect on dopamine receptors (in words) (hDAT): strong inhibitory effect
Solubility in pH 3.0 buffer (Solubility test; 10 mmol/L citrate buffer (pH 3.0), 5° C., overnight): 0.005 mg/mL
Solubility in pH 2.0 buffer (Solubility test; 10 mmol/L glycine buffer (pH 2.0), 5° C., overnight): 0.004 mg/mL
solubility (Solubility test; 10 mmol/L citrate buffer (pH 3.0), 5° C., overnight, read-out: Solubility in pH 3.0 buffer): 5 µg/mL (≈ 9.43 µM)
solubility (Solubility test; 10 mmol/L glycine buffer (pH 2.0), 5° C., overnight, read-out: Solubility in pH 2.0 buffer): 4 µg/mL (≈ 7.54 µM)
inhibition at 10 µM (hSERT; 10 μM, HEK293/hSERT membrane preparation): 76%
Inhibitory effect on serotonin receptors (in words) (hSERT): strong inhibitory effect

IC50 (recombinant p300): 17.2 nM
Structure (SMILES): O=C1N[C@]2(CCc3cc(-c4cnn(C5CN(C6COC6)C5)c4)ccc32)C(=O)N1CC(=O)N(Cc1ccc(F)cn1)C1(C(F)(F)F)CC(F)(F)C1 [Example 8, N-[3,3-difluoro-1-(trifluoromethyl)cyclobutyl]-N-[(5-fluoropyridin-2-yl)methyl]-2-[(1′S)-5′-{-[1-(oxetan-3-yl)azetidin-3-yl]-1H-pyrazol-4-yl}-2,5-dioxo-2′,3′-dihydrospiro[imidazolidine-4,1′-inden]-1-yl]acetamide]

IC50 (recombinant p300): 0.6 nM
Structure (SMILES): O=C1N[C@]2(C[C@@H](F)c3cc(-c4cnn(C5CN(C6COC6)C5)c4)ccc32)C(=O)N1CC(=O)N(Cc1ccc(F)cn1)C1(C(F)(F)F)CC(F)(F)C1 [Example 9, N-[3,3-difluoro-1-(trifluoromethyl)cyclobutyl]-2-[(1′S,3′R)-3′-fluoro-5′-{1-[1-(oxetan-3-yl)azetidin-3-yl]-1H-pyrazol-4-yl}-2,5-dioxo-2′,3′-dihydrospiro[imidazolidine-4,1′-inden]-1-yl]-N-[(5-fluoropyridin-2-yl)methyl]acetamide]

BA [1]: 30.0%
Structure (SMILES): CN1CC(N(Cc2ccc(F)cc2)C(=O)CN2C(=O)N[C@]3(CCc4cc(-c5cnn(C)c5)ccc43)C2=O)(C(F)(F)F)C1 [Example 12, N-[(4-fluorophenyl)methyl]-2-[(1′S)-5′-(1-methyl-1H-pyrazol-4-yl)-2,5-dioxo-2′,3′-dihydrospiro[imidazolidine-4,1′-inden]-1-yl]-N-[1-methyl-3-(trifluoromethyl)azetidin-3-yl]acetamide]

Structure (SMILES): CN1CC(N(Cc2ccc(F)cc2)C(=O)CN2C(=O)N[C@]3(C[C@@H](F)c4cc(-c5cnn(C6CCOCC6)c5)ccc43)C2=O)(C(F)(F)F)C1 [Example 19, 2-{(1′S,3′R)-3′-fluoro-5′-[1-(oxan-4-yl)-1H-pyrazol-4-yl]-2,5-dioxo-2′,3′-dihydrospiro[imidazolidine-4,1′-inden]-1-yl}-N-[(4-fluorophenyl)methyl]-N-[1-methyl-3-(trifluoromethyl)azetidin-3-yl]acetamide]
Cell proliferation inhibitory effect on G-401 cells (in words) (G-401 cells): strong cell proliferation inhibitory effect

Inhibitory effect on dopamine receptors (in words) (hDAT): did not show strong inhibitory activity
Pharmacokinetics (in words) [1]: excellent pharmacokinetics
BA [1]: 47.0%
Solubility (in words) (Solubility test; pH 2.0 and pH 3.0 buffers): high solubility
Inhibitory effect on serotonin receptors (in words) (hSERT): did not show strong inhibitory activity
Structure (SMILES): CN1CC(N(Cc2ccc(F)cn2)C(=O)CN2C(=O)N[C@]3(C[C@@H](F)c4cc(-c5cnn(C6COC6)c5)ccc43)C2=O)(C(F)(F)F)C1 [Example 24, 2-{(1′S,3′R)-3′-fluoro-5′-[1-(oxetan-3-yl)-1H-pyrazol-4-yl]-2,5-dioxo-2′,3′-dihydrospiro[imidazolidine-4,1′-inden]-1-yl}-N-[(5-fluoropyridin-2-yl)methyl]-N-[1-methyl-3-(trifluoromethyl)azetidin-3-yl]acetamide]
Antitumor effect, intravenous administration (in words) (G-401 xenograft): strong antitumor effects

Structure (SMILES): CN1CC(N(Cc2ccc(F)cn2)C(=O)CN2C(=O)N[C@]3(C[C@@H](F)c4cc(-c5cnn(CC6COC6)c5)ccc43)C2=O)(C(F)(F)F)C1 [Example 25, 2-[(1′S,3′R)-3′-fluoro-5′-{1-[(oxetan-3-yl)methyl]-1H-pyrazol-4-yl}-2,5-dioxo-2′,3′-dihydrospiro[imidazolidine-4,1′-inden]-1-yl]-N-[(5-fluoropyridin-2-yl)methyl]-N-[1-methyl-3-(trifluoromethyl)azetidin-3-yl]acetamide]
Inhibitory effect on dopamine receptors (in words) (hDAT): did not show strong inhibitory activity
Inhibitory effect on serotonin receptors (in words) (hSERT): did not show strong inhibitory activity
